# Columns and labels:
# [1] = target: Cytochrome P450 2C19 (Homo sapiens, UniProt P33261); test: Inhibition of CYP2C19 in human liver microsomes preincubated for 10 mins followed by NADPH addition and measured after 15 mins by LC/MS/MS analysis
# [2] = Acute toxicity in male ICR mouse assessed as effect on pathological damage in spleen at 2000 mg/kg, IG measured after 14 days by H and E staining based analysis; assay type: organism-based; conditions: in vivo, po, 336 h, time 14 day
# [3] = tested on: Human immunodeficiency virus 1; test: Antiviral activity against HIV-1 harboring RT K103N mutant infected in human MT4 cells assessed as protection against virus-induced cytopathic effect incubated for 5 days by MTT assay; assay type: functional, organism-based; conditions: Human immunodeficiency virus 1, MT4, 120 h
# [4] = Acute toxicity in female ICR mouse assessed as effect on pathological damage in liver at 2000 mg/kg, IG measured after 14 days by H and E staining based analysis; assay type: organism-based; conditions: in vivo, po, 336 h, time 14 day
# [5] = Acute toxicity in female ICR mouse assessed as effect on pathological damage in spleen at 2000 mg/kg, IG measured after 14 days by H and E staining based analysis; assay type: organism-based; conditions: in vivo, po, 336 h, time 14 day
# [6] = tested on: Human immunodeficiency virus 1; test: Antiviral activity against wildtype HIV-1 IIIB infected in human MT4 cells assessed as protection against virus-induced cytopathic effect incubated for 5 days by MTT assay; assay type: functional, organism-based; conditions: Human immunodeficiency virus 1, IIIB, MT4, 120 h
# [7] = target: Human immunodeficiency virus type 1 reverse transcriptase (Human immunodeficiency virus 1, UniProt Q72547); test: Inhibition of recombinant wild type HIV-1 Reverse transcriptase incubated for 40 mins by Pico-green reagent based fluorescence analysis
# [8] = Acute toxicity in male ICR mouse assessed as effect on pathological damage in lung at 2000 mg/kg, IG measured after 14 days by H and E staining based analysis; assay type: organism-based; conditions: in vivo, po, 336 h, time 14 day
# [9] = Solubility of compound in phosphate buffer at pH 2.0 measured after 24 hrs by HPLC analysis; assay type: physicochemical
# [10] = Solubility of compound in phosphate buffer at pH 7.4 measured after 24 hrs by HPLC analysis; assay type: physicochemical
# [11] = target: hERG (Homo sapiens, UniProt Q12809); test: Inhibition of human ERG expressed in CHO cells at holding potential of -80 mV at >40 uM by automated patch clamp electrophysiological method relative to control; assay type: toxicity, cell-based; conditions: CHO cells that express hERG
# [12] = target: Voltage-gated inwardly rectifying potassium channel KCNH2 (Homo sapiens, UniProt Q12809); test: Inhibition of human ERG expressed in CHO cells at holding potential of -80 mV by automated patch clamp electrophysiological method; assay type: toxicity, cell-based
# Sequence of Voltage-gated inwardly rectifying potassium channel KCNH2 (Q12809 whole entry): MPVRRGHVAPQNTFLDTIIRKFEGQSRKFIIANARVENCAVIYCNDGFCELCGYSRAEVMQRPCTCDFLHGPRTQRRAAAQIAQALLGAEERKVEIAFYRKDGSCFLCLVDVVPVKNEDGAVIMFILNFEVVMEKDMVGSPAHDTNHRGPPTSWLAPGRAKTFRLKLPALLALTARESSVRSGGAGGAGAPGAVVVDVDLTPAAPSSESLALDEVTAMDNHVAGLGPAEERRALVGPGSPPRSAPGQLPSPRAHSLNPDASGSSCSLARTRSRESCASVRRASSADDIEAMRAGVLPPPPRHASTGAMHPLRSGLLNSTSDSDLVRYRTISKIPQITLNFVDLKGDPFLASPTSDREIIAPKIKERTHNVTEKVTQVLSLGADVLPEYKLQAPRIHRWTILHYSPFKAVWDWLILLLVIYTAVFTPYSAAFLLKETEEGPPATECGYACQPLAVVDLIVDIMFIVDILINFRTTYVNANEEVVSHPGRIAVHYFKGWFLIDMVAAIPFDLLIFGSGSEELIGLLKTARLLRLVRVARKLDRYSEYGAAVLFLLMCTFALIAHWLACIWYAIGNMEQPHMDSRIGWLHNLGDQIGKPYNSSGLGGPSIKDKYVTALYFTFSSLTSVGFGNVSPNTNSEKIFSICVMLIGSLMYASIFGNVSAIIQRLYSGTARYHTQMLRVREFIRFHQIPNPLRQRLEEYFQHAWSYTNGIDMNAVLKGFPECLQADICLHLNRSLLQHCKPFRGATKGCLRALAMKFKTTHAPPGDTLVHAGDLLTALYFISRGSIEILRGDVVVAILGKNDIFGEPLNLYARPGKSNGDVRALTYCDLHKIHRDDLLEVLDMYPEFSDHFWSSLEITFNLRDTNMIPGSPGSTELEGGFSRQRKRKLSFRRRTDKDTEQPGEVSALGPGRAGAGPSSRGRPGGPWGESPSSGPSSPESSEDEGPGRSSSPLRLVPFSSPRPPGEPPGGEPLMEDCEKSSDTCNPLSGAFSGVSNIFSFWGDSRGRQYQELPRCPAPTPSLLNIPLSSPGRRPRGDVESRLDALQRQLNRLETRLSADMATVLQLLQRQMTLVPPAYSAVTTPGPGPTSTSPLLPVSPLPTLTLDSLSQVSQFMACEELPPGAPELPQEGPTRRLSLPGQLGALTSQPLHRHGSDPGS
# Sequence of hERG (Q12809 whole entry): as above
# Sequence of Cytochrome P450 2C19 (P33261 whole entry): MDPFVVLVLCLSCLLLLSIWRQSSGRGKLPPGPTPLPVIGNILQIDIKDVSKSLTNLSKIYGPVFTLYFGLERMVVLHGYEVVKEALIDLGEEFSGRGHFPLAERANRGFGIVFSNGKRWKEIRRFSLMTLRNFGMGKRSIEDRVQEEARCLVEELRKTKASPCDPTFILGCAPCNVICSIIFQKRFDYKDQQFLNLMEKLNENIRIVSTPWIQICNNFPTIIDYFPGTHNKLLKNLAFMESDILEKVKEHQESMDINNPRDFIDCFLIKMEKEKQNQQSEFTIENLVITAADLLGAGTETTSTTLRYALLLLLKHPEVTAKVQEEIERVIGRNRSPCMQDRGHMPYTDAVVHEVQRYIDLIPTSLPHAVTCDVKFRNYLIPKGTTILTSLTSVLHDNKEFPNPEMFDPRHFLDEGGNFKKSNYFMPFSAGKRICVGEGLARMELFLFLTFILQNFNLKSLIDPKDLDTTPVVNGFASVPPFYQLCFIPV
compound,measurement,setting,value
Cc1cc(-c2ccncc2)cc(C)c1Nc1nc(Nc2ccc(C#N)cc2)ncc1-c1cn[nH]c1,IC50,[1],> 50000 nM
same,Activity,[2],Non-toxic
same,EC50,[3],7 nM
same,Activity,[4],Non-toxic
same,Activity,[5],Non-toxic
same,EC50,[6],5 nM
same,IC50,[7],49 nM
same,Activity,[8],Non-toxic
same,solubility at 24 h,[9],1190 µg/mL
same,solubility at 24 h,[10],< 1 µg/mL
same,inhibition at 40 µM,[11],31.4%
same,IC50,[12],> 40000 nM
